Results as given in PubChem BioAssay (NCI).
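96-well plates; 48 h exposure; 5 concentrations. Endpoints by linear interpolation between flanking doses. Not reached: highest tested concentration assigned. GI50: concentration for 50% inhibition of growth. TGI: total growth inhibition.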

Assays:
Assay in all cases: DTP human tumour cell line panel, 48 h
SF-295 CNS = test system: SF-295 CNS
K-562 leukemia = test system: K-562 leukemia
OVCAR-5 ovarian = test system: OVCAR-5 ovarian
SW-620 colon = test system: SW-620 colon
A498 renal = test system: A498 renal
UACC-62 melanoma = test system: UACC-62 melanoma
HCT-116 colon = test system: HCT-116 colon
SF-268 CNS = test system: SF-268 CNS
U251 CNS = test system: U251 CNS
RPMI-8226 leukemia = test system: RPMI-8226 leukemia

SMILES	GI50 (SF-295 CNS)	TGI (SF-295 CNS)	GI50 (K-562 leukemia)	TGI (K-562 leukemia)	GI50 (OVCAR-5 ovarian)	TGI (OVCAR-5 ovarian)	GI50 (SW-620 colon)	TGI (SW-620 colon)	GI50 (A498 renal)	TGI (A498 renal)	GI50 (UACC-62 melanoma)	TGI (UACC-62 melanoma)	GI50 (HCT-116 colon)	TGI (HCT-116 colon)	GI50 (SF-268 CNS)	TGI (SF-268 CNS)	GI50 (U251 CNS)	TGI (U251 CNS)	GI50 (RPMI-8226 leukemia)	TGI (RPMI-8226 leukemia)
C=CCN=C(N/N=C/c1ccc([N+](=O)[O-])o1)NS(=O)(=O)c1cc(C(=O)Nc2ccc(Cl)cc2)c(Cl)cc1SC	> 100 µM	> 100 µM	2.41 µM	> 21.2 µM	14.1 µM	> 100 µM	1.02 µM	> 100 µM	28.5 µM	> 100 µM	2.81 µM	> 27.7 µM	0.935 µM	4.04 µM	2.85 µM	> 100 µM	3.93 µM	> 100 µM	0.504 µM	–
CN(C)CCN1C(=O)c2c(c3c4ccccc4n4c3c3c2c2ccccc2n3C2CC(O)C(O)C4(C)O2)C1=O (stereo not drawn)	1.45 µM	16.6 µM	0.84 µM	7.54 µM	4.43 µM	27.6 µM	0.407 µM	7.7 µM	1.24 µM	7.88 µM	0.767 µM	3.93 µM	0.626 µM	6.71 µM	1.46 µM	8.76 µM	1.04 µM	7.29 µM	1.58 µM	7.82 µM
COc1cc(OC)c2nc(C)c3c(c2c1)SCC3	–	65.9 µM	–	> 100 µM	–	80.2 µM	–	> 100 µM	–	36.2 µM	–	56.4 µM	–	48.5 µM	–	44.6 µM	–	55.9 µM	–	64.4 µM
Cc1cc(NCCCN(C)C)c2ccc3c(ccc4c(NCCCN(C)C)cc(C)nc43)c2n1	0.205 µM	0.745 µM	0.454 µM	> 100 µM	0.246 µM	0.909 µM	0.185 µM	0.493 µM	0.189 µM	0.409 µM	0.283 µM	0.93 µM	0.17 µM	0.439 µM	0.176 µM	0.393 µM	0.199 µM	0.541 µM	0.0489 µM	0.147 µM
O=C1CCCCC1S(=O)(=O)c1ccccc1 (stereo not drawn)	–	> 100 µM	–	> 100 µM	–	> 100 µM	–	> 100 µM	–	> 100 µM	–	> 100 µM	–	> 100 µM	–	> 100 µM	–	> 100 µM	–	> 100 µM
COc1ccc(CCN2CC=Cn3c2nc2ccccc2c3=O)cc1	0.0269 µM	> 100 µM	0.0203 µM	> 100 µM	0.217 µM	> 100 µM	0.037 µM	> 100 µM	0.0203 µM	0.0851 µM	0.232 µM	> 100 µM	0.0347 µM	> 100 µM	0.104 µM	> 60.8 µM	0.0368 µM	> 100 µM	0.0415 µM	43 µM
NCCCC[C@@H]1NC(=O)[C@H]2CCCN2C(=O)[C@H](Cc2ccccc2)CNC(=O)[C@H](Cc2ccccc2)NC1=O	> 37.5 µM	> 37.5 µM	> 17.9 µM	> 37.5 µM	> 37.5 µM	> 37.5 µM	> 37.5 µM	> 37.5 µM	> 37.5 µM	> 37.5 µM	> 37.5 µM	> 37.5 µM	> 37.5 µM	> 37.5 µM	> 37.5 µM	> 37.5 µM	> 37.5 µM	> 37.5 µM	> 37.5 µM	> 37.5 µM
O=C1/C(=C/c2ccccc2)CN(C(=O)CCN2CCOCC2)C/C1=C\c1ccccc1	–	6.86 µM	–	4.18 µM	–	16.2 µM	–	1.55 µM	–	25.5 µM	–	3.52 µM	–	2.04 µM	–	8.73 µM	–	3.52 µM	–	3.3 µM
CSc1nnc(CCC(=O)Nc2c(C)cccc2C)o1	–	> 100 µM	–	> 100 µM	–	> 100 µM	–	> 100 µM	–	> 100 µM	–	> 100 µM	–	> 100 µM	–	> 100 µM	–	> 100 µM	–	> 100 µM
NC(=O)CN(CC(N)=O)C(N)=O	–	> 100 µM	–	> 100 µM	–	> 100 µM	–	> 100 µM	–	> 100 µM	–	> 100 µM	–	> 100 µM	–	> 100 µM	–	> 100 µM	–	> 100 µM
COc1cc2c(cc1OC)[C@H](C)N1CCc3cc(OC)c(OC)cc3[C@@H]1C2	–	> 100 µM	–	> 100 µM	–	> 100 µM	–	> 100 µM	–	> 100 µM	–	> 100 µM	–	> 100 µM	–	> 100 µM	–	> 100 µM	–	> 100 µM
C#CC#CC#CC#CC#CC#CC#CC#CCC1OCC(COC(=O)O[C@@H](C(=O)O[C@H]2C[C@@]3(O)[C@@H](OC(=O)c4ccccc4)[C@@H]4[C@]5(OC(C)=O)CO[C@@H]5C[C@H](O)[C@@]4(C)C(=O)[C@H](OC(C)=O)C(=C2C)C3(C)C)[C@@H](NC(=O)c2ccccc2)c2ccccc2)O1 (stereo partly drawn)	0.581 µM	> 11.6 µM	0.121 µM	> 33.3 µM	0.25 µM	> 33.3 µM	0.104 µM	> 33.3 µM	0.191 µM	–	0.511 µM	> 33.3 µM	0.0533 µM	> 33.3 µM	0.379 µM	> 33.3 µM	0.162 µM	> 33.3 µM	0.0472 µM	> 33.3 µM
O=c1cnn(C2OC(CO)C(O)C2O)c(=S)[nH]1 (stereo not drawn)	–	> 100 µM	–	> 44.6 µM	–	> 100 µM	–	> 74.6 µM	–	> 100 µM	–	> 100 µM	–	> 100 µM	–	> 100 µM	–	> 100 µM	–	> 29.8 µM
C=C1C(O)C2C(=C(CC)C13CC3)C(=O)C(C)(C)C2OC (stereo not drawn)	> 100 µM	> 100 µM	31.3 µM	> 100 µM	> 100 µM	> 100 µM	59.9 µM	> 100 µM	> 100 µM	> 100 µM	84.9 µM	> 100 µM	28.3 µM	> 100 µM	> 100 µM	> 100 µM	48.4 µM	> 100 µM	20.6 µM	68 µM
COc1ccc2c(c1)c(CC(=O)[Se]C)c(C)n2C(=O)c1ccc(Cl)cc1	> 0.365 µM	> 0.58 µM	> 0.583 µM	> 1 µM	> 0.424 µM	> 1 µM	> 0.468 µM	> 0.854 µM	0.269 µM	> 0.561 µM	> 0.445 µM	> 1 µM	> 0.204 µM	> 0.543 µM	> 0.199 µM	> 0.53 µM	> 0.326 µM	> 0.573 µM	> 0.542 µM	> 0.942 µM
O=C(/C=C/Sc1cc(C(F)(F)F)cc(C(F)(F)F)c1)c1ccc(Cl)cc1	13.6 µM	29.6 µM	2.92 µM	24.6 µM	18.6 µM	33.7 µM	17 µM	41.3 µM	15.9 µM	29.3 µM	4.58 µM	15.6 µM	1.83 µM	4.09 µM	14.4 µM	29.6 µM	4.65 µM	16.2 µM	0.197 µM	1.02 µM
N#C/C(=C\c1ccsc1)c1nc2ccccc2o1	31.5 µM	> 100 µM	> 100 µM	> 100 µM	> 100 µM	> 100 µM	> 100 µM	> 100 µM	33.6 µM	> 100 µM	61.6 µM	> 100 µM	35.7 µM	> 100 µM	38 µM	> 100 µM	37.2 µM	> 100 µM	61.7 µM	> 100 µM
Cc1cc([N+](=O)[O-])c(NS(=O)(=O)c2cccc(C(=O)O)c2)cc1-c1cccnc1	> 100 µM	> 100 µM	> 100 µM	> 100 µM	> 100 µM	> 100 µM	> 100 µM	> 100 µM	> 100 µM	> 100 µM	> 100 µM	> 100 µM	> 100 µM	> 100 µM	> 100 µM	> 100 µM	> 100 µM	> 100 µM	> 100 µM	> 100 µM
CCOc1cc2c(C(=O)CC)c(O)ccc2o1	–	> 100 µM	–	> 81.7 µM	–	> 100 µM	–	> 100 µM	–	> 94.4 µM	–	> 52.8 µM	–	> 72.5 µM	–	> 100 µM	–	> 100 µM	–	> 100 µM
CC(=O)[CH-]C(=O)c1ccccc1.CC(=O)[CH-]C(=O)c1ccccc1.CC[O-].CC[O-].[Hf+4]	> 100 µM	> 100 µM	> 100 µM	> 100 µM	> 100 µM	> 100 µM	> 100 µM	> 100 µM	> 100 µM	> 100 µM	> 100 µM	> 100 µM	> 100 µM	> 100 µM	> 100 µM	> 100 µM	> 100 µM	> 100 µM	> 100 µM	> 100 µM
COc1cccc(-c2c[nH]c3c(N/N=C/c4ccncc4)ncnc23)c1	3.5 µM	> 25 µM	1 µM	> 25 µM	4.93 µM	17.2 µM	1.5 µM	5.39 µM	1.96 µM	7.7 µM	2.8 µM	6.31 µM	1.24 µM	5.36 µM	3.44 µM	13.3 µM	2.13 µM	7.94 µM	5.62 µM	14.4 µM
